The source of these data is US12358907B2, “Substituted pyrrolidine amides III” (GRÜNENTHAL GMBH, priority 2019, dated 2025).

The term IC50 denotes the concentration at which inhibition is half-maximal.

Like-named read-outs stand apart in the source and are kept apart here.

In the test the target is glucocorticoid receptor (GAL4 DBD-GR) (Homo sapiens (Human), UniProt P04150). The test can be described thus: GR cell-based assays (GRE agonist / GRE antagonist), CHO-Gal4/GR luciferase reporter. The method, boiled down:
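CHO cells stably carrying GAL4 DBD-GR ligand-binding-domain fusion and a GAL4-UAS firefly luciferase reporter were treated in Opti-MEM with 8 half-log concentrations from 10 μM to 0.003 μM (0.5% DMSO, quadruplicates). Antagonist mode measured repression of beclomethasone-induced signal. Luminescence after lysis gave EC50 or IC50.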
In general terms: A reporter such as luciferase makes a cellular process visible.

[1] abbreviates: CHO-Gal4/GR reporter cells, agonist mode (EC50) or antagonist mode against beclometasone (IC50), 6 hour incubation.

glucocorticoid receptor (GAL4 DBD-GR), sequence (P04150 524-758): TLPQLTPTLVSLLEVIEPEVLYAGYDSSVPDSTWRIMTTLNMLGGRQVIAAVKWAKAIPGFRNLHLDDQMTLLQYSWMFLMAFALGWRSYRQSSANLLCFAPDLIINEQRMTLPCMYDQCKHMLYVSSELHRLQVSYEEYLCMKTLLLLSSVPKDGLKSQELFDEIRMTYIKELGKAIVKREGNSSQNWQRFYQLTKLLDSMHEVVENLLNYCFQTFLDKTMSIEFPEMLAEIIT

With `C[C@H]1C(=O)N(c2ccc3c(cnn3-c3ccc(F)cc3)c2)[C@H](c2ccccc2Cl)[C@H]1NC(=O)c1cccnc1` (racemic) [Example 87, N-[rac-(2R,3S,4R)-2-(2-Chlorophenyl)-1-[1-(4-fluorophenyl)-1H-indazol-5-yl]-4-methyl-5-oxo-pyrrolidin-3-yl]-pyridine-3-carboxylic acid amide], the concentration for half-maximal inhibition (IC50) (read-out: IC50 or EC50) was under 100 nM.

Regarding `C[C@H]1C(=O)N(c2ccc3c(cnn3-c3ccc(F)cc3)c2)[C@H](c2ccc(Cl)s2)[C@H]1NC(=O)C1CC1` (racemic) [Example 124, N-[rac-(2S,3S,4R)-2-(5-Chloro-thiophen-2-yl)-1-[1-(4-fluorophenyl)-1H-indazol-5-yl]-4-methyl-5-oxo-pyrrolidin-3-yl]-cyclopropanecarboxylic acid amide], the IC50 (read-out: IC50 or EC50) is under 100 nM.

Regarding `C[C@@H]1C(=O)N(c2ccc3c(cnn3-c3ccc(F)cc3)c2)[C@H](c2ccc(Cl)s2)[C@H]1NS(C)(=O)=O` [Example 114, N-[(2S,3S,4S)-2-(5-Chloro-thiophen-2-yl)-1-[1-(4-fluorophenyl)-1H-indazol-5-yl]-4-methyl-5-oxo-pyrrolidin-3-yl]-methanesulfonic acid amide], under “read-out: IC50 or EC50”, the IC50 lay within 100 to 1000 nM.

Regarding `C[C@@H]1C(=O)N(c2ccc3c(cnn3-c3ccc(F)cc3)c2)[C@H](c2ccc(Cl)s2)[C@H]1NC(=O)c1ccn(C)n1` (racemic) [Example 110, N-[rac-(2S,3S,4S)-2-(5-Chloro-thiophen-2-yl)-1-[1-(4-fluorophenyl)-1H-indazol-5-yl]-4-methyl-5-oxo-pyrrolidin-3-yl]-1-methyl-1H-pyrazole-3-carboxylic acid amide], where the note is “read-out: IC50 or EC50”, the IC50 is under 100 nM.

Consider `O=C(N[C@H]1C(CCc2ccccc2)C(=O)N(c2ccc3c(cnn3-c3ccc(F)cc3)c2)[C@@H]1c1ccccc1)C1CC1` (single isomer, unassigned) [Example 130], for which the IC50 under setting [1] was 100 to 1000 nM.

With `C[C@@H]1C(=O)N(c2ccc3c(cnn3-c3ccc(F)cc3)c2)[C@H](c2ccccc2Cl)[C@H]1NC(=O)C1CC1` (racemic) [Example 112, N-[rac-(2R,3S,4S)-2-(2-Chlorophenyl)-1-[1-(4-fluorophenyl)-1H-indazol-5-yl]-4-methyl-5-oxo-pyrrolidin-3-yl]-cyclopropanecarboxylic acid amide], the IC50 (read-out: IC50 or EC50) lay within 100 to 1000 nM.

For `O=C(N[C@@H]1[C@@H](c2ccccc2)N(c2cnc3c(cnn3-c3ccc(F)cc3)c2)C(=O)C12CC2)C1CC1` (racemic) [Example 31, N-[rac-((6R,7S)-5-(1-(4-fluorophenyl)-1H-pyrazolo[3,4-b]pyridin-5-yl)-4-oxo-6-phenyl-5-azaspiro[2.4]heptan-7-yl)]cyclopropanecarboxamide], the IC50 (read-out: IC50 or EC50) was 100 to 1000 nM.

`COc1ccc([C@@H]2[C@@H](NC(=O)C(C)(F)F)[C@H](C)C(=O)N2c2ccc3c(cnn3-c3ccc(F)cc3)c2)cc1` (racemic) [Example 98, 2,2-Difluoro-N-[rac-(2R,3S,4S)-1-[1-(4-fluorophenyl)-1H-indazol-5-yl]-2-(4-methoxyphenyl)-4-methyl-5-oxo-pyrrolidin-3-yl]-propionamide]: the IC50 (read-out: IC50 or EC50) is under 100 nM.

As to `CC1(C)C(=O)N(c2ccc3c(cnn3-c3ccc(F)cc3)c2)[C@@H](c2ccccc2)[C@@H]1NS(C)(=O)=O` [Example 34b, N-((2S,3R)-1-(1-(4-fluorophenyl)-1H-indazol-5-yl)-4,4-dimethyl-5-oxo-2-phenylpyrrolidin-3-yl)methanesulfonamide], the half-maximal inhibitory concentration (IC50) (read-out: IC50 or EC50) lay in the range of 100 to 1000 nM.

In the case of `CC1(C)C(=O)N(c2ccc3c(cnn3-c3ccc(F)cc3)c2)[C@@H](c2ccccc2)[C@@H]1NC(=O)c1cnco1` [Example 36b, N-((2S,3R)-1-(1-(4-fluorophenyl)-1H-indazol-5-yl)-4,4-dimethyl-5-oxo-2-phenylpyrrolidin-3-yl)oxazole-5-carboxamide], the IC50 (read-out: IC50 or EC50) is 100 to 1000 nM.

Consider `C[C@@H]1C(=O)N(c2ccc3c(cnn3-c3ccc(F)cc3)c2)[C@H](c2ccn(C)n2)[C@H]1NC(=O)C(C)(F)F` (racemic) [Example 120, 2,2-Difluoro-N-[rac-(2S,3S,4S)-1-[1-(4-fluorophenyl)-1H-indazol-5-yl]-4-methyl-2-(1-methyl-1H-pyrazol-3-yl)-5-oxo-pyrrolidin-3-yl]-propionamide], for which, for the setting “read-out: IC50 or EC50”, the IC50 was in the range of 1000 to 15000 nM.

Molecule `O=C(N[C@H]1[C@H](F)C(=O)N(c2ccc3c(cnn3-c3ccc(F)cc3)c2)[C@@H]1c1ccccc1)C1CC1` [Example 95, N-((2R,3R,4S)-4-fluoro-1-(1-(4-fluorophenyl)-1H-indazol-5-yl)-5-oxo-2-phenylpyrrolidin-3-yl)cyclopropanecarboxamide] showed an IC50 under setting [1] of under 100 nM.

With `CC[C@@H]1C(=O)N(c2ccc3c(cnn3-c3ccc(F)cc3)c2)[C@H](c2ccccc2)[C@H]1NC(=O)C1CC1` (racemic) [Example 126, N-[rac-(2R,3S,4S)-4-Ethyl-1-[1-(4-fluorophenyl)-1H-indazol-5-yl]-5-oxo-2-phenyl-pyrrolidin-3-yl]-cyclopropanecarboxylic acid amide], the IC50 (read-out: IC50 or EC50) is under 100 nM.

For the molecule `CC1C(=O)N(c2ccc3c(cnn3-c3ccc(F)cc3)c2)C(c2ccccc2Cl)C1NC(=O)c1ccn(C)n1` (racemic) [Example 94, N-[rac-(2R,3S,4R)-2-(2-Chlorophenyl)-1-[1-(4-fluorophenyl)-1H-indazol-5-yl]-4-methyl-5-oxo-pyrrolidin-3-yl]-1-methyl-1H-pyrazole-3-carboxylic acid amide], the IC50 (read-out: IC50 or EC50) is under 100 nM.

Turning to `Cc1cccc([C@@H]2[C@@H](NC(=O)c3ccn(C)n3)[C@@H](C)C(=O)N2c2ccc3c(cnn3-c3ccc(F)cc3)c2)c1` (racemic) [Example 72, N-[rac-(2R,3S,4R)-1-[1-(4-Fluorophenyl)-1H-indazol-5-yl]-4-methyl-2-m-tolyl-5-oxo-pyrrolidin-3-yl]-1-methyl-1H-pyrazole-3-carboxylic acid amide], where the note is “read-out: IC50 or EC50”, the IC50 is under 100 nM.

Regarding `C[C@H]1C(=O)N(c2ccc3c(cnn3-c3ccc(F)cc3)c2)[C@H](c2ccccc2Cl)[C@H]1NS(C)(=O)=O` (racemic) [Example 86, N-[rac-(2R,3S,4R)-2-(2-Chlorophenyl)-1-[1-(4-fluorophenyl)-1H-indazol-5-yl]-4-methyl-5-oxo-pyrrolidin-3-yl]-methanesulfonic acid amide], the IC50 (read-out: IC50 or EC50) is under 100 nM.

`O=C(N[C@@H]1[C@@H](c2ccccc2)N(c2ccc3c(cnn3-c3ccc(F)cc3)c2)C(=O)C1(F)F)C1CC1` [Example 96, N-((2R,3R)-4,4-difluoro-1-(1-(4-fluorophenyl)-1H-indazol-5-yl)-5-oxo-2-phenylpyrrolidin-3-yl)cyclopropanecarboxamide] had an IC50 under setting [1] of under 100 nM.

Turning to `CC(F)(F)C(=O)N[C@H]1CC(=O)N(c2ccc3c(cnn3-c3ccc(F)cc3)c2)[C@]1(C)c1ccccc1` (racemic) [Example 100, 2,2-Difluoro-N-[rac-(2R,3S)-1-[1-(4-fluorophenyl)-1H-indazol-5-yl]-2-methyl-5-oxo-2-phenyl-pyrrolidin-3-yl]-propionamide], under “read-out: IC50 or EC50”, the IC50 was under 100 nM.

For `Cc1cccc([C@@H]2[C@@H](NC(=O)C(C)(F)F)[C@@H](C)C(=O)N2c2ccc3c(cnn3-c3ccc(F)cc3)c2)c1` (racemic) [Example 77, 2,2-Difluoro-N-[rac-(2R,3S,4R)-1-[1-(4-fluorophenyl)-1H-indazol-5-yl]-4-methyl-2-m-tolyl-5-oxo-pyrrolidin-3-yl]-propionamide], where the note is “read-out: IC50 or EC50”, the IC50 was under 100 nM.

`C[C@@H]1C(=O)N(c2ccc3c(cnn3-c3ccc(F)cc3)c2)[C@H](c2ccc(Cl)s2)[C@H]1NC(=O)c1cccnc1` (racemic) [Example 111, N-[rac-(2S,3S,4S)-2-(5-Chloro-thiophen-2-yl)-1-[1-(4-fluorophenyl)-1H-indazol-5-yl]-4-methyl-5-oxo-pyrrolidin-3-yl]-pyridine-3-carboxylic acid amide]: the IC50 (read-out: IC50 or EC50) was under 100 nM.

For `Cn1cc(C[C@@H]2C(=O)N(c3ccc4c(cnn4-c4ccc(F)cc4)c3)[C@H](c3ccccc3)[C@H]2NC(=O)C2CC2)cn1` [Example 139a, N-((2R,3S,4S)-1-(1-(4-fluorophenyl)-1H-indazol-5-yl)-4-((1-methyl-1H-pyrazol-4-yl)methyl)-5-oxo-2-phenylpyrrolidin-3-yl)cyclopropanecarboxamide], the IC50 (read-out: IC50 or EC50) lay in the range of 1000 to 15000 nM.

For the molecule `C[C@@]1(c2ccccc2)[C@@H](NC(=O)C2CC2)CC(=O)N1c1ccc2c(cnn2-c2ccc(F)cc2)c1` (racemic) [Example 101, N-[rac-(2R,3S)-1-[1-(4-Fluorophenyl)-1H-indazol-5-yl]-2-methyl-5-oxo-2-phenyl-pyrrolidin-3-yl]-cyclopropanecarboxylic acid amide], the IC50 (read-out: IC50 or EC50) was 100 to 1000 nM.

Turning to `C[C@@H]1C(=O)N(c2ccc3c(cnn3-c3ccc(F)cc3)c2)[C@H](c2ccccc2)[C@H]1NC(=O)c1cccnc1` (racemic) [Example 65, N-[rac-(2R,3S,4S)-1-[1-(4-Fluorophenyl)-1H-indazol-5-yl]-4-methyl-5-oxo-2-phenyl-pyrrolidin-3-yl]-pyridine-3-carboxylic acid amide], the IC50 (read-out: IC50 or EC50) was under 100 nM.

For the molecule `C[C@@H]1C(=O)N(c2ccc3c(cnn3-c3ccc(F)cc3)c2)[C@H](c2ccccc2Cl)[C@H]1NC(=O)C(C)(F)F` (racemic) [Example 47, N-[rac-(2R,3S,4S)-2-(2-Chlorophenyl)-1-[1-(4-fluorophenyl)-1H-indazol-5-yl]-4-methyl-5-oxo-pyrrolidin-3-yl]-2,2-difluoro-propionamide], the IC50 (read-out: IC50 or EC50) was under 100 nM.

Turning to `Cc1cccc([C@@H]2[C@@H](NC(=O)c3ccn(C)n3)[C@H](C)C(=O)N2c2ccc3c(cnn3-c3ccc(F)cc3)c2)c1` (racemic) [Example 75, N-[rac-(2R,3S,4S)-1-[1-(4-Fluorophenyl)-1H-indazol-5-yl]-4-methyl-2-m-tolyl-5-oxo-pyrrolidin-3-yl]-1-methyl-1H-pyrazole-3-carboxylic acid amide], under “read-out: IC50 or EC50”, the IC50 was under 100 nM.
